Measured values reported in patent US10538554B2, “Peptides and uses therefor as antiviral agents” (priority 2015, dated 2020).
Bridge positions count the residues as written; N and C are the ends. Square brackets hold non-standard residues; d marks the D form. Peptide text beside a SMILES is read from it.

Experiments:
H9N2 A/Iran/16/2000 = details: 48 h; for % inhibition H9N2: 10 μM
[1] = system: H1N1 A1/Malaysia/302/1954; details: A1/Malaysia/302/1954, 48 h; for % inhibition H1N1: 10 μM
H3N8 A/Miami/2/63 = details: A/Miami/2/63, 48 h; for % inhibition H3N8: 10 μM
H3N2 A/HK/8/1968 = details: A/HK/8/1968, 48 h; for % inhibition H3N2: 10 μM
H1N1 A/NY/18/2009 = details: A/NY/18/2009, 48 h; for % Inhibition Pdm 2009: 10 μM
H1N1 A/PR/8/1934 = details: A/PR/8/1934, 48 h; for % Inhibition PR/8: 10 μM; for % Inhibition: 1 μM
[2] = system: Influenza B/MALAYSIA/2506/04

CC[C@@H](C)[C@H]1NC(=O)[C@@H](Cc2ccccc2)NC(=O)[C@@H]([C@H](C)CC)NC(=O)[C@@H](Cc2ccccc2)NC(=O)[C@@H](Cc2c[nH]c3ccccc23)NC(=O)[C@@H]([C@H](C)O)NC(=O)[C@H](NC(=O)[C@H](CCCCN)NC(=O)[C@H](CCCCN)NC(=O)[C@H](CCCNC(=N)N)NC(=O)[C@@H](N)CCCNC(=N)N)CSSC[C@H](C(=O)O)NC(=O)[C@@H](CC(N)=O)NC1=O [PSP IV A8, H-RRKKctwfifinc-OH] (H-RRKK[dC][dT][dW][dF][dI][dF][dI][dN][dC]-OH; disulfide 5-13)
% inhibition H9N2 (H9N2 A/Iran/16/2000): 92%
% inhibition H1N1 [1]: 92%
% inhibition H3N8 (H3N8 A/Miami/2/63): 96%
% inhibition H3N2 (H3N2 A/HK/8/1968): 96%
% Inhibition Pdm 2009 (H1N1 A/NY/18/2009): 95%
% Inhibition PR/8 (H1N1 A/PR/8/1934): 97%

CC[C@@H](C)[C@H]1NC(=O)[C@@H](Cc2ccccc2)NC(=O)[C@@H](CCCCN)NC(=O)[C@@H](Cc2ccccc2)NC(=O)[C@@H](Cc2c[nH]c3ccccc23)NC(=O)[C@@H]([C@H](C)O)NC(=O)[C@H](NC(=O)[C@H](CCCCN)NC(=O)[C@H](CCCCN)NC(=O)[C@H](CCCNC(=N)N)NC(=O)[C@@H](N)CCCNC(=N)N)CSSC[C@H](C(=O)O)NC(=O)[C@@H](CC(N)=O)NC1=O [PSP IV A9, H-RRKKctwfkfinc-OH] (H-RRKK[dC][dT][dW][dF][dK][dF][dI][dN][dC]-OH; disulfide 5-13)
% inhibition H9N2 (H9N2 A/Iran/16/2000): 39%
% inhibition H1N1 [1]: 56%
% inhibition H3N8 (H3N8 A/Miami/2/63): 79%
% inhibition H3N2 (H3N2 A/HK/8/1968): 73%
% Inhibition Pdm 2009 (H1N1 A/NY/18/2009): 66%
% Inhibition PR/8 (H1N1 A/PR/8/1934): 74%

CC[C@@H](C)[C@H]1NC(=O)[C@@H](Cc2ccccc2)NC(=O)[C@@H](CC(C)C)NC(=O)[C@@H](Cc2ccccc2)NC(=O)[C@@H](Cc2c[nH]c3ccccc23)NC(=O)[C@@H]([C@H](C)O)NC(=O)[C@H](NC(=O)[C@H](CCCCN)NC(=O)[C@H](CCCCN)NC(=O)[C@H](CCCNC(=N)N)NC(=O)[C@@H](N)CCCNC(=N)N)CSSC[C@H](C(=O)O)NC(=O)[C@@H](CC(N)=O)NC1=O [PSP IV A10, H-RRKKctwflfinc-OH] (H-RRKK[dC][dT][dW][dF][dL][dF][dI][dN][dC]-OH; disulfide 5-13)
% inhibition H9N2 (H9N2 A/Iran/16/2000): 97%
% inhibition H1N1 [1]: 90%
% inhibition H3N8 (H3N8 A/Miami/2/63): 96%
% inhibition H3N2 (H3N2 A/HK/8/1968): 96%
% Inhibition Pdm 2009 (H1N1 A/NY/18/2009): 85%
% Inhibition PR/8 (H1N1 A/PR/8/1934): 96%

CC[C@@H](C)[C@H]1NC(=O)[C@@H](Cc2ccccc2)NC(=O)[C@@H](CCSC)NC(=O)[C@@H](Cc2ccccc2)NC(=O)[C@@H](Cc2c[nH]c3ccccc23)NC(=O)[C@@H]([C@H](C)O)NC(=O)[C@H](NC(=O)[C@H](CCCCN)NC(=O)[C@H](CCCCN)NC(=O)[C@H](CCCNC(=N)N)NC(=O)[C@@H](N)CCCNC(=N)N)CSSC[C@H](C(=O)O)NC(=O)[C@@H](CC(N)=O)NC1=O [PSP IV A11, H-RRKKctwfmfinc-OH] (H-RRKK[dC][dT][dW][dF][dM][dF][dI][dN][dC]-OH; disulfide 5-13)
% inhibition H9N2 (H9N2 A/Iran/16/2000): 84%
% inhibition H1N1 [1]: 89%
% inhibition H3N8 (H3N8 A/Miami/2/63): 93%
% inhibition H3N2 (H3N2 A/HK/8/1968): 90%
% Inhibition Pdm 2009 (H1N1 A/NY/18/2009): 88%
% Inhibition PR/8 (H1N1 A/PR/8/1934): 85%

CC[C@@H](C)[C@H]1NC(=O)[C@@H](Cc2ccccc2)NC(=O)[C@H]2CCCN2C(=O)[C@@H](Cc2ccccc2)NC(=O)[C@@H](Cc2c[nH]c3ccccc23)NC(=O)[C@@H]([C@H](C)O)NC(=O)[C@H](NC(=O)[C@H](CCCCN)NC(=O)[C@H](CCCCN)NC(=O)[C@H](CCCNC(=N)N)NC(=O)[C@@H](N)CCCNC(=N)N)CSSC[C@H](C(=O)O)NC(=O)[C@@H](CC(N)=O)NC1=O [PSP IV A13, H-RRKKctwfpfinc-OH] (H-RRKK[dC][dT][dW][dF][dP][dF][dI][dN][dC]-OH; disulfide 5-13)
% inhibition H9N2 (H9N2 A/Iran/16/2000): 55%
% inhibition H1N1 [1]: 52%
% inhibition H3N8 (H3N8 A/Miami/2/63): 69%
% inhibition H3N2 (H3N2 A/HK/8/1968): 74%
% Inhibition Pdm 2009 (H1N1 A/NY/18/2009): 65%
% Inhibition PR/8 (H1N1 A/PR/8/1934): 66%

CC[C@@H](C)[C@H]1NC(=O)[C@@H](Cc2ccccc2)NC(=O)[C@@H](CCC(N)=O)NC(=O)[C@@H](Cc2ccccc2)NC(=O)[C@@H](Cc2c[nH]c3ccccc23)NC(=O)[C@@H]([C@H](C)O)NC(=O)[C@H](NC(=O)[C@H](CCCCN)NC(=O)[C@H](CCCCN)NC(=O)[C@H](CCCNC(=N)N)NC(=O)[C@@H](N)CCCNC(=N)N)CSSC[C@H](C(=O)O)NC(=O)[C@@H](CC(N)=O)NC1=O [PSP IV A14, H-RRKKctwfqfinc-OH] (H-RRKK[dC][dT][dW][dF][dQ][dF][dI][dN][dC]-OH; disulfide 5-13)
% inhibition H9N2 (H9N2 A/Iran/16/2000): 68%
% inhibition H1N1 [1]: 66%
% inhibition H3N8 (H3N8 A/Miami/2/63): 83%
% inhibition H3N2 (H3N2 A/HK/8/1968): 83%
% Inhibition Pdm 2009 (H1N1 A/NY/18/2009): 74%
% Inhibition PR/8 (H1N1 A/PR/8/1934): 77%

CC[C@@H](C)[C@H]1NC(=O)[C@@H](Cc2ccccc2)NC(=O)[C@@H](CO)NC(=O)[C@@H](Cc2ccccc2)NC(=O)[C@@H](Cc2c[nH]c3ccccc23)NC(=O)[C@@H]([C@H](C)O)NC(=O)[C@H](NC(=O)[C@H](CCCCN)NC(=O)[C@H](CCCCN)NC(=O)[C@H](CCCNC(=N)N)NC(=O)[C@@H](N)CCCNC(=N)N)CSSC[C@H](C(=O)O)NC(=O)[C@@H](CC(N)=O)NC1=O [PSP IV A16, H-RRKKctwfsfinc-OH] (H-RRKK[dC][dT][dW][dF][dS][dF][dI][dN][dC]-OH; disulfide 5-13)
% inhibition H9N2 (H9N2 A/Iran/16/2000): 89%
% inhibition H1N1 [1]: 91%
% inhibition H3N8 (H3N8 A/Miami/2/63): 93%
% inhibition H3N2 (H3N2 A/HK/8/1968): 96%
% Inhibition Pdm 2009 (H1N1 A/NY/18/2009): 81%
% Inhibition PR/8 (H1N1 A/PR/8/1934): 78%

CC[C@@H](C)[C@H]1NC(=O)[C@@H](Cc2ccccc2)NC(=O)[C@@H]([C@H](C)O)NC(=O)[C@@H](Cc2ccccc2)NC(=O)[C@@H](Cc2c[nH]c3ccccc23)NC(=O)[C@@H]([C@H](C)O)NC(=O)[C@H](NC(=O)[C@H](CCCCN)NC(=O)[C@H](CCCCN)NC(=O)[C@H](CCCNC(=N)N)NC(=O)[C@@H](N)CCCNC(=N)N)CSSC[C@H](C(=O)O)NC(=O)[C@@H](CC(N)=O)NC1=O [PSP IV A17, H-RRKKctwftfinc-OH] (H-RRKK[dC][dT][dW][dF][dT][dF][dI][dN][dC]-OH; disulfide 5-13)
% inhibition H9N2 (H9N2 A/Iran/16/2000): 92%
IC50 [1]: 51 nM
% inhibition H1N1 [1]: 91%
% inhibition H3N8 (H3N8 A/Miami/2/63): 97%
IC50 (H3N2 A/HK/8/1968): 56 nM
% inhibition H3N2 (H3N2 A/HK/8/1968): 97%
IC50 (H1N1 A/NY/18/2009): 33 nM
% Inhibition Pdm 2009 (H1N1 A/NY/18/2009): 97%
IC50 (H1N1 A/PR/8/1934): 260 nM
% Inhibition (H1N1 A/PR/8/1934): <20%
% Inhibition PR/8 (H1N1 A/PR/8/1934): 97%
IC50 [2]: 990 nM

CC[C@@H](C)[C@H]1NC(=O)[C@@H](Cc2ccccc2)NC(=O)[C@@H](C(C)C)NC(=O)[C@@H](Cc2ccccc2)NC(=O)[C@@H](Cc2c[nH]c3ccccc23)NC(=O)[C@@H]([C@H](C)O)NC(=O)[C@H](NC(=O)[C@H](CCCCN)NC(=O)[C@H](CCCCN)NC(=O)[C@H](CCCNC(=N)N)NC(=O)[C@@H](N)CCCNC(=N)N)CSSC[C@H](C(=O)O)NC(=O)[C@@H](CC(N)=O)NC1=O [PSP IV A18, H-RRKKctwfvfinc-OH] (H-RRKK[dC][dT][dW][dF][dV][dF][dI][dN][dC]-OH; disulfide 5-13)
% inhibition H9N2 (H9N2 A/Iran/16/2000): 95%
% inhibition H1N1 [1]: 84%
% inhibition H3N8 (H3N8 A/Miami/2/63): 96%
% inhibition H3N2 (H3N2 A/HK/8/1968): 96%
% Inhibition Pdm 2009 (H1N1 A/NY/18/2009): 97%
% Inhibition PR/8 (H1N1 A/PR/8/1934): 96%

CC[C@@H](C)[C@H]1NC(=O)[C@@H](Cc2ccccc2)NC(=O)[C@@H](Cc2c[nH]c3ccccc23)NC(=O)[C@@H](Cc2ccccc2)NC(=O)[C@@H](Cc2c[nH]c3ccccc23)NC(=O)[C@@H]([C@H](C)O)NC(=O)[C@H](NC(=O)[C@H](CCCCN)NC(=O)[C@H](CCCCN)NC(=O)[C@H](CCCNC(=N)N)NC(=O)[C@@H](N)CCCNC(=N)N)CSSC[C@H](C(=O)O)NC(=O)[C@@H](CC(N)=O)NC1=O [PSP IV A19, H-RRKKctwfwfinc-OH] (H-RRKK[dC][dT][dW][dF][dW][dF][dI][dN][dC]-OH; disulfide 5-13)
% inhibition H9N2 (H9N2 A/Iran/16/2000): 95%
% inhibition H1N1 [1]: 87%
% inhibition H3N8 (H3N8 A/Miami/2/63): 94%
% inhibition H3N2 (H3N2 A/HK/8/1968): 94%
% Inhibition Pdm 2009 (H1N1 A/NY/18/2009): 94%
% Inhibition PR/8 (H1N1 A/PR/8/1934): 90%

CC[C@@H](C)[C@H]1NC(=O)[C@@H](Cc2ccccc2)NC(=O)[C@@H](Cc2ccc(O)cc2)NC(=O)[C@@H](Cc2ccccc2)NC(=O)[C@@H](Cc2c[nH]c3ccccc23)NC(=O)[C@@H]([C@H](C)O)NC(=O)[C@H](NC(=O)[C@H](CCCCN)NC(=O)[C@H](CCCCN)NC(=O)[C@H](CCCNC(=N)N)NC(=O)[C@@H](N)CCCNC(=N)N)CSSC[C@H](C(=O)O)NC(=O)[C@@H](CC(N)=O)NC1=O [PSP IV A20, H-RRKKctwfyfinc-OH] (H-RRKK[dC][dT][dW][dF][dY][dF][dI][dN][dC]-OH; disulfide 5-13)
% inhibition H9N2 (H9N2 A/Iran/16/2000): 85%
% inhibition H1N1 [1]: 79%
% inhibition H3N8 (H3N8 A/Miami/2/63): 89%
% inhibition H3N2 (H3N2 A/HK/8/1968): 89%
% Inhibition Pdm 2009 (H1N1 A/NY/18/2009): 79%
% Inhibition PR/8 (H1N1 A/PR/8/1934): 85%

CC[C@@H](C)[C@H]1NC(=O)[C@@H](Cc2ccccc2)NC(=O)[C@@H]([C@H](C)O)NC(=O)[C@@H](Cc2ccccc2)NC(=O)[C@@H](Cc2c[nH]c3ccccc23)NC(=O)[C@@H](Cc2c[nH]c3ccccc23)NC(=O)[C@H](NC(=O)[C@H](CCCCN)NC(=O)[C@H](CCCCN)NC(=O)[C@H](CCCNC(=N)N)NC(=O)[C@@H](N)CCCNC(=N)N)CSSC[C@H](C(=O)O)NC(=O)[C@@H](C)NC1=O [PSP VI A1, H-RRKKcwwftfiac-OH] (H-RRKK[dC][dW][dW][dF][dT][dF][dI][dA][dC]-OH; disulfide 5-13)
IC50 (H9N2 A/Iran/16/2000): 10.4 nM
IC50 [1]: 5 nM
IC50 (H3N8 A/Miami/2/63): 2 nM
IC50 (H3N2 A/HK/8/1968): 1.9 nM
IC50 (H1N1 A/NY/18/2009): 0.13 nM
IC50 (H1N1 A/PR/8/1934): 4 nM
% Inhibition (H1N1 A/PR/8/1934): 98.5%
IC50 [2]: 1.2 nM
